pIC50: −log10 of the molar value.
Assay: Antiproliferative activity against human MDR1 transfected mouse L5178Y cell line

SMILES: COc1ccc(CCN(C)CCCN2C(=O)C3C4c5ccccc5C(c5ccccc54)C3C2=O)cc1OC (stereo not drawn)
- pIC50: 5.24

SMILES: COc1ccc(CCN(C)CCN2C(=O)C3C4c5ccccc5C(c5ccccc54)C3C2=O)cc1OC (stereo not drawn)
- pIC50: 5.37

SMILES: COc1ccc(CCN(C)CC#CCN2C(=O)C3C4c5ccccc5C(c5ccccc54)C3C2=O)cc1OC (stereo not drawn)
- pIC50: 5.59

Reference: BindingDB's records for doi:10.1021/jm060056p (University of Bologna, 2006)
